In patent US10464928B2, “Amino pyrimidine SSAO inhibitors” (Eli Lilly and Company, priority 2016, dated 2019):
Each block holds one compound with its values, some of them ahead of it.

Assays:
[1] = tested on: SSAO activity in rat plasma and liver tissues; assay: SSAO Target Engagement (residual SSAO activity in rat plasma and liver after dosing); type: in vivo; details: doses 0.005-15 mg/kg
Experimental: The SSAO activity in rat plasma and liver tissues are measured using the MAO-Glo™ assay kit from Promega (V1402). The residual SSAO activity in rats after compound treatment is estimated by measuring the total amine oxidase activity in plasma or liver lysates that are insensitive to the presence of the MAO inhibitor Clogyline and Pargyline. Rats are administered the compound of Example 2 at the doses of 15, 3, 0.6, 0.12, 0.025, 0.005 mg/kg. The control group is administered with the same volume (2 ml/kg) of the dosing vehicle (hydroxyethyl cellulose 1% w/v, 0.25% Tween 80). Plasma and liver at 2 or 24 hours post compound treatment are harvested and stored at −78° C. until analysis. Tissue lysates are prepared by homogenization in a lysis buffer (20 mM HEPES, pH 7.4, 150 mM NaCl, 1 mM EDTA, 1 mM EGTA, 1% Triton X-100 and 1× Roche Complete protease inhibitor tablet). Tissue particles are removed by centrifugation at 12,000 rpm at 4° C. for 30 minutes. 40 μl of plasma or liver lysates is incubated with Clogyline (10 μM) and Pargyline (10 μM) for 20 minutes at room temperature before the addition of the luminogenic substrate (50 μM) for 60 minutes. The product generated is quantified according to the manufacture's procedure. […] The compound of Example 2 was evaluated in the protocol essentially as described above administered at various doses.

[2] = Plasma compound level in 3H diet mice by mass spectroscopy; type: in vivo, Male C57BL/6N mice; details: treated mice, all doses
Experimental: Male C57BL/6N mice are fed with D09100301 diet (Research Diets, 40% fat, 2% cholesterol, 24% fructose, (the, high fat, high cholesterol and high fructose, the “3H diet”) for 150 days. Each mouse is then singly housed after 5 days for an acclimation period. Plasma alanine aminotransferase (ALT) and cytokeratin 18 (CK18) are measured. After one week of recovery, the mice are randomized into 5 groups based on their ALT values, CK18 values, and body weight. Animals of each group are administrated either vehicle (0.5% methylcellulose (MC)+0.25% Tween 80 in distilled water) or the compound of Example 6 (at a 0.06, 2, 6, and 20 mg/kg dose) once daily in a volume of 5 ml/kg for 11 weeks. Blood is collected from mice treated with the compound of Example 6 for 76 days 2 hours after the last dose. Compound levels in the plasma are analyzed by mass spectroscopy.

[3] = tested on: NASH and fibrosis induced by 3H diet; assay: Mouse Model of NASH and Fibrosis Induced by 3H Diet; type: in vivo, Male C57BL/6N mice; details: for Perisinusoidal fibrosis Left, Score (0-3) / Hepatic inflammation Left, Score (0-3) / Macrovesicular vaculation Left, Score (0-3): left lobe; for Perisinusoidal fibrosis Left, Score (0-3): vehicle 2.5 ± 0.2; for Hepatic inflammation Left, Score (0-3) / Macrovesicular vaculation Left, Score (0-3) / Macrovesicular vaculation Right, Score (0-3): vehicle 2.8 ± 0.1; for Perisinusoidal fibrosis Right, Score (0-3) / Hepatic inflammation Right, Score (0-3) / Macrovesicular vaculation Right, Score (0-3): right lobe; for Perisinusoidal fibrosis Right, Score (0-3): vehicle 2.3 ± 0.1; for Hepatic inflammation Right, Score (0-3): vehicle 2.7 ± 0.1
Experimental: Male C57BL/6N mice are fed with D09100301 diet (Research Diets, 40% fat, 2% cholesterol, 24% fructose, (the, high fat, high cholesterol and high fructose, the “3H diet”) for 150 days. Each mouse is then singly housed after 5 days for an acclimation period. Plasma alanine aminotransferase (ALT) and cytokeratin 18 (CK18) are measured. After one week of recovery, the mice are randomized into 5 groups based on their ALT values, CK18 values, and body weight. […] Blood is collected from mice treated with the compound of Example 6 for 76 days 2 hours after the last dose. Compound levels in the plasma are analyzed by mass spectroscopy. […] At the completion of the study, the animals are sacrificed and their livers excised. Two sections of the left and right lobes are fixed in neutral buffered 10% formalin. Liver tissue slides are stained with hematoxylin and eosin (H&E), Sirius red, and Masson's Trichrome to prepare slides for pathological analysis. All specimens are examined microscopically and scored as a modified Brunt score NASH Activity Score. Scores are based on the grading scheme and end-points as described in Brunt E. M, et al., “Histopathology of nonalcoholic fatty liver disease,” World J. of Gastroenterol, 2010, 16(42), 5286-5296. Group means are then calculated for each individual end-point. The following endpoints are used to characterize the fast food model of NASH in mice as modified from NASH endpoints (See Brunt, E. M. “Histopathology of nonalcoholic fatty liver disease,” Clin Liver Dis., 2009, 13, 533-544 and Brunt, E. M, et al., “Nonalcoholic steatohepatitis: A proposal for grading and staging the histological lesions”, Am J Gastroenterology, 1999, 94(9), 2467-2474.

SMILES: Cl.Cl.NC/C(=C\F)COc1cnc(N2CCC(O)CC2)nc1 [Example 2, 1-[5-[(E)-2-(Aminomethyl)-3-fluoro-allyloxy]pyrimidin-2-yl]piperidin-4-ol dihydrochloride]
SSAO activity in rat plasma and liver (result in words) [1]: dose-dependently inhibits SSAO activity

plasma compound levels (result in words) [2]: dose-dependent increase
SMILES: Cl.Cl.NC/C(=C\F)COc1cnc(N2CC[C@H](O)C2)nc1 [Example 6, (3S)-1-[5-[(E)-2-(Aminomethyl)-3-fluoro-allyloxy]pyrimidin-2-yl]pyrrolidin-3-ol; Dihydrochloride]
Perisinusoidal fibrosis Left, Score (0-3) ([3]; 0.6 mg/kg once daily 11 weeks): 2.4 ± 0.2
Hepatic inflammation Left, Score (0-3) ([3]; 0.6 mg/kg once daily 11 weeks): 2.6 ± 0.1
Macrovesicular vaculation Left, Score (0-3) ([3]; 0.6 mg/kg once daily 11 weeks): 2.5 ± 0.1
Perisinusoidal fibrosis Right, Score (0-3) ([3]; 0.6 mg/kg once daily 11 weeks): 1.9 ± 0.2
Hepatic inflammation Right, Score (0-3) ([3]; 0.6 mg/kg once daily 11 weeks): 2.5 ± 0.1
Macrovesicular vaculation Right, Score (0-3) ([3]; 0.6 mg/kg once daily 11 weeks): 2.6 ± 0.1
Perisinusoidal fibrosis Left, Score (0-3) ([3]; 2 mg/kg once daily 11 weeks): 2.5 ± 0.2
Hepatic inflammation Left, Score (0-3) ([3]; 2 mg/kg once daily 11 weeks): 2.5 ± 0.1
Macrovesicular vaculation Left, Score (0-3) ([3]; 2 mg/kg once daily 11 weeks): 2.5 ± 0.1
Perisinusoidal fibrosis Right, Score (0-3) ([3]; 2 mg/kg once daily 11 weeks): 1.8 ± 0.2
Hepatic inflammation Right, Score (0-3) ([3]; 2 mg/kg once daily 11 weeks): 2.6 ± 0.1
Macrovesicular vaculation Right, Score (0-3) ([3]; 2 mg/kg once daily 11 weeks): 2.7 ± 0.1
Perisinusoidal fibrosis Left, Score (0-3) ([3]; 6 mg/kg once daily 11 weeks): 2.6 ± 0.2
Hepatic inflammation Left, Score (0-3) ([3]; 6 mg/kg once daily 11 weeks): 2.5 ± 0.2
Macrovesicular vaculation Left, Score (0-3) ([3]; 6 mg/kg once daily 11 weeks): 2.9 ± 0.1
Perisinusoidal fibrosis Right, Score (0-3) ([3]; 6 mg/kg once daily 11 weeks): 2.1 ± 0.3
Hepatic inflammation Right, Score (0-3) ([3]; 6 mg/kg once daily 11 weeks): 2.6 ± 0.2
Macrovesicular vaculation Right, Score (0-3) ([3]; 6 mg/kg once daily 11 weeks): 2.7 ± 0.1
hepatic inflammation (result in words) ([3]; 20 mg/kg): significant decrease
macrovesicular vaculation (result in words) ([3]; 20 mg/kg): significant decrease
perisinusoidal fibrosis (result in words) ([3]; 20 mg/kg): significant decrease
Perisinusoidal fibrosis Left, Score (0-3) ([3]; 20 mg/kg once daily 11 weeks): 1.9 ± 0.2
Hepatic inflammation Left, Score (0-3) ([3]; 20 mg/kg once daily 11 weeks): 2.1 ± 0.1
Macrovesicular vaculation Left, Score (0-3) ([3]; 20 mg/kg once daily 11 weeks): 2.4 ± 0.2
Perisinusoidal fibrosis Right, Score (0-3) ([3]; 20 mg/kg once daily 11 weeks): 1.5 ± 0.2
Hepatic inflammation Right, Score (0-3) ([3]; 20 mg/kg once daily 11 weeks): 2.1 ± 0.1
Macrovesicular vaculation Right, Score (0-3) ([3]; 20 mg/kg once daily 11 weeks): 2.3 ± 0.1
triglyceride levels in blood (result in words) ([3]; 6 and 20 mg/kg): decreased
ALT (result in words) ([3]; all groups of treated mice vs vehicle): significant decrease
